Measured values taken from patent publication US11839659B2, “Proteolysis-targeting chimeric molecules (PROTACs) that induce degradation of indoleamine 2,3-dioxygenase (IDO) protein” (Northwestern University, priority 2020, dated 2023).
Entries after “also recorded” stand apart in the source; their conditions may differ. Peptide text beside a SMILES is read from it. * marks the point of attachment. Cbz = O=C(OCc1ccccc1)*

Experiments:
Type in all cases: cell-based
IDO1 [1] = molecular target: T1, IDO1 (Homo sapiens, UniProt P14902); experiment: Western blot: effect of competitors and pathway inhibitors on IDO-PROTAC induced IDO1 degradation; details: co-treatment with IDO-PROTAC, U87 cells where stated
T1 construct: IDO1 protein was induced in U87 cells with IFNg (50 ng/ml) for 24 hours followed by treatment with IDO-PROTAC; endogenous in cells; host or cells: U87 parental cells; GBM43 cells (IFNg-induced)
T1 sequence (P14902 whole entry): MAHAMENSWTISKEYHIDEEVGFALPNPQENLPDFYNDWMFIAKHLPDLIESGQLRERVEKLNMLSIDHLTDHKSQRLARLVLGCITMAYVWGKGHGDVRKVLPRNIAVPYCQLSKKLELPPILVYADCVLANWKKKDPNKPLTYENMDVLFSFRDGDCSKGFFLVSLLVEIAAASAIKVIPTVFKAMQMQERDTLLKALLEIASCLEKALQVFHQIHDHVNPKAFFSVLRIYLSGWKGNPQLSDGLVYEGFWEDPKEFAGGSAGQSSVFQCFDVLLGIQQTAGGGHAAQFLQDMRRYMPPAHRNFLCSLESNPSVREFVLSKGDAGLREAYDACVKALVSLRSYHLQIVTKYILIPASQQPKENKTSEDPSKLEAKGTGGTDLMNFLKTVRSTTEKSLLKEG

IDO1 [2] = molecular target: T1, IDO1; experiment: Western blot of IFNg-induced IDO1 protein levels in U87 cells after IDO-PROTAC treatment; details: IFNg (50 ng/ml) 24 hours, then IDO-PROTAC 24 hours
Procedure: FIG. 2. Screening method for PROTAC-induced degradation of IDO1 using INFg-treated U87 parental cells.
(§1) FIG. 20. Discovery of lead IDO-PROTAC to induce IDO1 degradation in cancer cells. A. Schema for screening IDO-PROTAC compounds in U87 cells. […] Percent IFNg-induced IDO1 levels (normalized to untreated samples) were calculated in U87 cells after treating with IDO-PROTAC compounds at 0, 0.1, 1, and 10 uM concentration for 24 hours. C. […] IDO1 was induced in U87 and GBM43 cells with IFNg (50 ng/ml) for 24 hours followed by treatment with IDO-PROTAC for 24 hours before protein samples were prepared for western blotting analysis. D. Percent normalized IDO1 protein levels in U87 and GBM43 cells (from panel C) after treating with lead IDO-PROTAC (NU223612) for 24 hours. E & F. Testing moderate and poor IDO-PROTAC compounds on IDO1 protein levels in U87 cells. […] Structures of IDO-PROTAC (I), mutant IDO-PROTAC (J), and parental compound (K).
FIG. 27. Representative western blots to identify a lead IDO-PROTAC in U87 cells. IDO1 protein was induced in U87 cells with IFNg (50 ng/ml) for 24 hours followed by treatment with IDO-PROTAC at 0, 0.1, 1, and 10 uM for 24 hours before protein samples were prepared for western blotting analysis of IDO1 and GAPDH.

IDO1 [3] = molecular target: T1, IDO1; experiment: Western blot of IFNg-induced IDO1 protein levels in GBM43 cells after IDO-PROTAC treatment; details: IFNg (50 ng/ml) 24 hours, then IDO-PROTAC 24 hours
Procedure: as §1

IDO1 [4] = molecular target: T1, IDO1; experiment: Enzyme-dependent (kynurenine production) and enzyme-independent (phospho-NFkB p65) functions of IDO1 in GBM cells; details: GBM cells (U87, GBM43)
Procedure: FIG. 24. […] A & B. Effect of IDO-PROTAC, mutant IDO-PROTAC, and IDO-inhibitor on kynurenine production in U87 & GBM43 cells respective cells. Cells were treated with IDO-PROTAC, mutant IDO-PROTAC, or IDO-inhibitor in the presence of INFg (50 ng/ml) for 24 hours and cell culture supernatants were collected to measure IFNg-induced kynurenine levels using a modified Erlich method. Cells cultured in the absence of IFNg serves as a control group. C. Western blotting analysis to determine the effect of IDO-PROTAC and IDO-inhibitor on IDO1 protein levels, phospho-NFkB (p65) levels, total-NFkB (p65) levels and GAPDH levels in U87 cells. IDO1 protein was induced with IFNg for 24 hours in U87 cells followed by treatment with IDO-PROTAC and IDO-inhibitor for 24 hours at multiple concentrations. D. Western blotting analysis to determine the effect of IDO-PROTAC, mutant IDO-PROTAC, and IDO-inhibitor on IDO1 protein levels, phospho-NFkB (p65) levels, total-NFkB (p65) levels and GAPDH levels in a breast cancer cell line, MDA MB 231. E. Western blotting analysis to determine the effect of IDO-PROTAC on the levels of IDO1 protein, phospho-NFkB (p65), total-NFkB (p65) and GAPDH in U87 IDO1 overexpressing (flag-tagged) cells. Cells were treated with DMSO or IDO-PROTAC (10 uM) for 24 hours prior to protein extraction. U87 parental cells serves as a control group for basal phosphorylation of NFkB. […]

IDO1 degradation (western blot) (IDO1 [2]) | IDO1 degradation (western blot) (IDO1 [3]) | Effect on NU223612 (IDO-PROTAC) induced IDO1 degradation (IDO1 [1]; listed as CRBN ligand) | SMILES | Effect on NU223612 (IDO-PROTAC) induced IDO1 degradation (IDO1 [1]) | Effect on enzyme-dependent and enzyme-independent functions of IDO1 (IDO1 [4])
 |  |  | CC(C)C[C@@H](C=O)NC(=O)[C@H](CC(C)C)NC(=O)[C@H](CC(C)C)NC(=O)OCc1ccccc1 [MG132] (Cbz-Leu-Leu-Leu-aldehyde) | blocks NU223612 induced IDO1 degradation; also recorded: blocks IDO-PROTAC-induced IDO1 degradation | 
induced IDO1 degradation | induced IDO1 degradation |  | C[C@@H](C(=O)Nc1ccc(OC2CCN(C(=O)CCOCCOCCNc3cccc4c3C(=O)N(C3CCC(=O)NC3=O)C4=O)CC2)cc1)[C@H]1CC[C@@H](c2ccnc3ccc(F)cc32)CC1 (stereo partly shown) [NU223612] |  | inhibits both enzyme-dependent and enzyme-independent functions of IDO1
 |  | blocks NU223612 induced IDO1 degradation | Nc1cccc2c1C(=O)N(C1CCC(=O)NC1=O)C2=O (stereo not shown) [Pomalidomide] | blocks IDO-PROTAC-induced IDO1 degradation | 
 |  |  | NS(=O)(=O)OC[C@@H]1C[C@@H](n2ccc3c(N[C@H]4CCc5ccccc54)ncnc32)C[C@@H]1O [MLN4924] | blocks IDO-PROTAC-induced IDO1 degradation | 
